The values below come from patent US20020006942A1, “Methods of treating liver disorders and disorders associated with liver function” (priority 2000, published 2002).

Series [1] has as its system CYP7A1 mRNA expression by rat hepatoma L35 cells. The series can be described thus: Direct treatment of L35 cells, CYP7A1 mRNA relative to β-actin. It is filed as cell-based.
For a further series, the system named is hepatic CYP7A1 mRNA. The series can be described thus: Hepatic CYP7A1 mRNA relative to GAPDH in C57BL/6 mice on chow or bile acid-containing atherogenic diet. Type of series: in vivo, mouse. Conditions: chow-fed mice, 1 mg/ml daily by oral gavage, p=ns.
The test system of a further series is CYP7A1. Conditions: bile acid infused; Heuman et al., 1989; cited from earlier work.
Series [2] has as its system cytokine mRNAs (TNFα, TGF-β1, IL1β) in THP-1 cells. As to the kind of experiment: Cytokine mRNA expression by THP-1 cells (RNase protection assay). Type of series: cell-based, human. The following applies: 100 μM, 48 h. The source says:
Hepatic cytokine mRNAs were quantitated using RNase protection assays, as follows. In vitro transcribed [α-^32P]-UTP labeled -antisense cytokine probes were generated using cytokine multi-probe template kits: Mouse mCK-2 (catalog # 45002P) and Mouse mCK-3 (catalog #45003P) (PharMingen International) and a MAXIscript in vitro transcription kit (catalog #1314) using T7 RNA polymerase per manufacturer instructions. The radiolabeled probes were eluted through G25 Sephadex columns (Boehringer Mannheim) to remove unincorporated nucleotides. RNase protection assays were performed with HybSpeed RPA kits (catalog #1412) (Ambion Inc.) according to the manufacturers specifications. For each reaction, 20 fig of total RNA was hybridized to approximately 50,000 cpm of the antisense cytokine probes and digested with a mixture of RNase A and RNase T1. The protected RNA fragments were separated via a 5% denaturing acrylamide gel. PhosporImager (Molecular Dynamics) analysis was used to visualize the protected RNA fragments. […] Cells were harvested and polyA mRNA extracted, as described above. The content of human cytokines mRNAs were quantited by RNase protection assays, as described above except human template kits were used (Human hCK-2-catalog # 45032P and Human hCK-3-catalog # 45033P) (PharMingen International).

From the text for hepatic CYP7A1 mRNA: Female C3H/HeJ and [MUT] mice 10-12 weeks old (Jackson Laboratory, Bar Harbor, Me.) were housed in a room with a normal light cycle (lights on from 0600 to 1800) fed water ad libitum with either normal Purina breeder chow or ground Purina breeder chow supplemented with 20% olive oil, 2% cholesterol and 0.5% taurocholic acid (bile acid-contaning atherogenic diet) and water ad libitum. Mice were maintained on this diet for 3 weeks. After 3 weeks, mice were sacrificed at 0900. […] Mice were sacrificed at 0900 and blood was obtained for subsequent analysis. Livers were extracted for RNA, and polyA RNA was isolated, as described (Dueland, et al., 1993, J. Lipid.Res. 34:923-931; Dueland, et al., 1997, J. Lipid Res. 38:1445-1453). Poly A MRNA was blotted onto nitrocellulose and probed with ^32P-labeled cDNA encoding rat CYP7A1 and GAPDH (Duelandet al., 1993, J. Lipid Res. 34:923-931; Dueland, et al., 1997, J. Lipid Res. 38:1445-1453). The relative abundance of CYP7A1 mRNA to GAPDH mRNA was determined using Phosphorimager quantitation (Molecular Biosystems).

As for TNFa, the “expression of CYP7A1 by L35 cells” value in series [1] (human TNFa alone, 24 h) was “repressed”.
In the case of `CN(CCOc1ccc(CC2SC(=O)NC2=O)cc1)c1ccccn1` (stereo not drawn) [rosiglitazone], the “decrease in the expression of CYP7A1” value with hepatic CYP7A1 mRNA turned out to be 30%.
Take `C[C@H](CCC(=O)O)[C@H]1CC[C@H]2[C@@H]3[C@@H](O)C[C@@H]4C[C@H](O)CC[C@]4(C)[C@H]3CC[C@]12C` [UDCA, ursodeoxycholic acid]: the “ability to repress CYP7A1” value with CYP7A1 was “does not repress”.
As to `C[C@H](CCC(=O)O)[C@H]1CC[C@H]2[C@@H]3[C@H](O)C[C@@H]4C[C@H](O)CC[C@]4(C)[C@H]3CC[C@]12C` [CDCA, chenodeoxycholic acid], in series [2], the “induction of TNFα, TGF-β1 and IL1β mRNAs by THP-1 cells” value was > 10 fold. Further, in the series on CYP7A1, the “ability to repress CYP7A1” value is “potent repressor”. Besides, in series [1] (CDCA 100 μM added directly to L35 cells, 24 hours), the “CYP7A1 expression by L35 cells” value is “unaffected”.
